In PubChem BioAssay AID2060602 (Molecular Pharmacology Branch, DTP, NCI, 2025):

Tested on: 648629-189-R-J1-PDC complex spheroids viability
Test: Anticancer human tumor 648629-189-R-J1-PDC patient-derived bladder carcinoma cell line growth inhibition [CLK]
Settings: for IC50: curve of first compound; for viability, T/C: stronger effect = lower value; active = viability on the fitted dose curve at most 10% of control; inactive = the rest
Outline: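 Patient-derived tumor cells grown as complex spheroids with HUVEC endothelial cells and mesenchymal stem cells, treated with drug combinations. Concentrations descend in half-log steps from near clinical Cmax, or from 10 microM if Cmax unknown.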

[1] = second compound 0.0316 µM, first compound 0.0316 µM
[2] = second compound 0.0316 µM, first compound 0.1 µM
[3] = second compound 0.0316 µM, first compound 0.316 µM
[4] = second compound 0.0316 µM, first compound 1 µM
[5] = second compound 0.0316 µM, first compound 3.16 µM
[6] = second compound 0.0316 µM, first compound 10 µM
[7] = second compound 0.1 µM, first compound 0.0316 µM
[8] = second compound 0.1 µM, first compound 0.1 µM
[9] = second compound 0.1 µM, first compound 0.316 µM
[10] = second compound 0.1 µM, first compound 1 µM
[11] = second compound 0.1 µM, first compound 3.16 µM
[12] = second compound 0.1 µM, first compound 10 µM
[13] = second compound 0.316 µM, first compound 0.0316 µM
[14] = second compound 0.316 µM, first compound 0.1 µM
[15] = second compound 0.316 µM, first compound 0.316 µM
[16] = second compound 0.316 µM, first compound 1 µM
[17] = second compound 0.316 µM, first compound 3.16 µM
[18] = second compound 0.316 µM, first compound 10 µM
[19] = second compound 1 µM, first compound 0.0316 µM
[20] = second compound 1 µM, first compound 0.1 µM
[21] = second compound 1 µM, first compound 0.316 µM
[22] = second compound 1 µM, first compound 1 µM
[23] = second compound 1 µM, first compound 3.16 µM
[24] = second compound 1 µM, first compound 10 µM
[25] = second compound 3.16 µM, first compound 0.0316 µM
[26] = second compound 3.16 µM, first compound 0.1 µM
[27] = second compound 3.16 µM, first compound 0.316 µM
[28] = second compound 3.16 µM, first compound 1 µM
[29] = second compound 3.16 µM, first compound 3.16 µM
[30] = second compound 3.16 µM, first compound 10 µM
[31] = second compound 10 µM, first compound 0.0316 µM
[32] = second compound 10 µM, first compound 0.1 µM
[33] = second compound 10 µM, first compound 0.316 µM
[34] = second compound 10 µM, first compound 1 µM
[35] = second compound 10 µM, first compound 3.16 µM
[36] = second compound 10 µM, first compound 10 µM
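Throughout, for viability, T/C: drug exposure lasted seven days before viability readout; 100% = DMSO vehicle control wells.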

C=CC(=O)N1CCN(c2nc(=O)n(-c3c(C)ccnc3C(C)C)c3nc(-c4c(O)cccc4F)c(F)cc23)C(C)C1 (stereo unspecified) + CNC(=O)c1ccc(Nc2nc(OC3CCCC3)c3c(-c4ccc5nc(C)oc5c4)c[nH]c3n2)c(OC)c1
> 10000 nM: IC50 (second compound 0.0316 µM) | IC50 (second compound 0.1 µM)
inactive: viability, T/C [1] 120% | viability, T/C [2] 110% | viability, T/C [3] 115% | viability, T/C [4] 108% | viability, T/C [5] 115% | viability, T/C [6] 110% | viability, T/C [7] 91.9% | viability, T/C [8] 94.6% | viability, T/C [9] 90.1% | viability, T/C [10] 87.9% | viability, T/C [11] 93.5% | viability, T/C [12] 82.5% | viability, T/C [13] 27% | viability, T/C [14] 24.8% | viability, T/C [15] 29.8% | viability, T/C [16] 39.2% | viability, T/C [17] 42.6% | viability, T/C [18] 66.2% | viability, T/C [19] 23.5% | viability, T/C [20] 26.6% | viability, T/C [21] 23.5% | viability, T/C [22] 24.2% | viability, T/C [23] 26.9% | viability, T/C [24] 46.2% | viability, T/C [25] 17.9% | viability, T/C [26] 22.7% | viability, T/C [27] 20.4% | viability, T/C [28] 22.6% | viability, T/C [29] 27.7% | viability, T/C [30] 31.8% | viability, T/C [31] 19.7% | viability, T/C [32] 20.5% | viability, T/C [33] 20.3% | viability, T/C [34] 27.3% | viability, T/C [35] 33.2% | viability, T/C [36] 28.5%
< 31.6 nM: IC50 (second compound 0.316 µM) | IC50 (second compound 1 µM) | IC50 (second compound 3.16 µM) | IC50 (second compound 10 µM)

CCCS(=O)(=O)Nc1ccc(F)c(C(=O)c2c[nH]c3ncc(-c4ccc(Cl)cc4)cc23)c1F + CNC(=O)c1ccc(Nc2nc(OC3CCCC3)c3c(-c4ccc5nc(C)oc5c4)c[nH]c3n2)c(OC)c1
6250 nM: IC50 (second compound 0.0316 µM)
5910 nM: IC50 (second compound 0.1 µM)
inactive: viability, T/C [1] 117% | viability, T/C [2] 104% | viability, T/C [3] 111% | viability, T/C [4] 89.9% | viability, T/C [5] 98.7% | viability, T/C [6] 18.2% | viability, T/C [7] 75.2% | viability, T/C [8] 83.9% | viability, T/C [9] 94.8% | viability, T/C [10] 94.5% | viability, T/C [11] 105% | viability, T/C [12] 15.8% | viability, T/C [13] 27.9% | viability, T/C [14] 24.1% | viability, T/C [15] 33.6% | viability, T/C [16] 31.2% | viability, T/C [17] 27.6% | viability, T/C [18] 7.72% | viability, T/C [19] 19.7% | viability, T/C [20] 20.6% | viability, T/C [21] 23.2% | viability, T/C [22] 17.9% | viability, T/C [23] 21% | viability, T/C [24] 9.33% | viability, T/C [25] 16.6% | viability, T/C [26] 21.2% | viability, T/C [27] 19.1% | viability, T/C [28] 20.2% | viability, T/C [29] 20.9% | viability, T/C [30] 11.3% | viability, T/C [31] 20.6% | viability, T/C [32] 21% | viability, T/C [33] 19.1% | viability, T/C [34] 18.9% | viability, T/C [35] 18.7% | viability, T/C [36] 8.45%
< 31.6 nM: IC50 (second compound 0.316 µM) | IC50 (second compound 1 µM) | IC50 (second compound 3.16 µM) | IC50 (second compound 10 µM)

COC1C=CCC(C)C(C)S(=O)(=O)NC(=O)c2ccc3c(c2)N(CC2CCC21)CC1(CCCc2cc(Cl)ccc21)CO3 (stereo unspecified) + CNC(=O)c1ccc(Nc2nc(OC3CCCC3)c3c(-c4ccc5nc(C)oc5c4)c[nH]c3n2)c(OC)c1
1840 nM: IC50 (second compound 0.1 µM)
1790 nM: IC50 (second compound 0.0316 µM)
inactive: viability, T/C [1] 107% | viability, T/C [2] 89% | viability, T/C [3] 91.6% | viability, T/C [4] 80.7% | viability, T/C [5] 20.1% | viability, T/C [7] 82.8% | viability, T/C [8] 97.5% | viability, T/C [9] 83.8% | viability, T/C [10] 88.5% | viability, T/C [11] 16.3% | viability, T/C [13] 27.2% | viability, T/C [14] 23.6% | viability, T/C [15] 24.2% | viability, T/C [16] 14% | viability, T/C [19] 19.5% | viability, T/C [20] 20.7% | viability, T/C [21] 16.3% | viability, T/C [22] 10.1% | viability, T/C [25] 21.5% | viability, T/C [26] 18.3% | viability, T/C [27] 16.7% | viability, T/C [28] 10.5% | viability, T/C [31] 17.1% | viability, T/C [32] 16.5% | viability, T/C [33] 15.2% | viability, T/C [34] 11.4%
active: viability, T/C [6] 4.12% | viability, T/C [12] 4.69% | viability, T/C [17] 8.44% | viability, T/C [18] 2.86% | viability, T/C [23] 6.11% | viability, T/C [24] 3.77% | viability, T/C [29] 6.62% | viability, T/C [30] 3.31% | viability, T/C [35] 6.23% | viability, T/C [36] 3.81%
< 31.6 nM: IC50 (second compound 0.316 µM) | IC50 (second compound 1 µM) | IC50 (second compound 3.16 µM) | IC50 (second compound 10 µM)
